Experiment [1] is described as follows: Counterscreen for IDE inhibitors: Luminescence-based cell-based high throughput dose response assay to identify compounds that are cytotoxic to HEK cells. [Related pubchem assays: 434962 (Primary screen (IDE inhibitors in singlicate)), 449730 (Counterscreen (Cytotoxicity in triplicate)), 435028 (Confirmation (IDE inhibitors in triplicate)) …. In kind it is functional. To be noted: HEK293. On the technique in general: Counterscreens check selectivity or assay interference.

A further experiment has as its target T1, Insulin-degrading enzyme (Homo sapiens, UniProt P14735).
T1 sequence (P14735 whole entry): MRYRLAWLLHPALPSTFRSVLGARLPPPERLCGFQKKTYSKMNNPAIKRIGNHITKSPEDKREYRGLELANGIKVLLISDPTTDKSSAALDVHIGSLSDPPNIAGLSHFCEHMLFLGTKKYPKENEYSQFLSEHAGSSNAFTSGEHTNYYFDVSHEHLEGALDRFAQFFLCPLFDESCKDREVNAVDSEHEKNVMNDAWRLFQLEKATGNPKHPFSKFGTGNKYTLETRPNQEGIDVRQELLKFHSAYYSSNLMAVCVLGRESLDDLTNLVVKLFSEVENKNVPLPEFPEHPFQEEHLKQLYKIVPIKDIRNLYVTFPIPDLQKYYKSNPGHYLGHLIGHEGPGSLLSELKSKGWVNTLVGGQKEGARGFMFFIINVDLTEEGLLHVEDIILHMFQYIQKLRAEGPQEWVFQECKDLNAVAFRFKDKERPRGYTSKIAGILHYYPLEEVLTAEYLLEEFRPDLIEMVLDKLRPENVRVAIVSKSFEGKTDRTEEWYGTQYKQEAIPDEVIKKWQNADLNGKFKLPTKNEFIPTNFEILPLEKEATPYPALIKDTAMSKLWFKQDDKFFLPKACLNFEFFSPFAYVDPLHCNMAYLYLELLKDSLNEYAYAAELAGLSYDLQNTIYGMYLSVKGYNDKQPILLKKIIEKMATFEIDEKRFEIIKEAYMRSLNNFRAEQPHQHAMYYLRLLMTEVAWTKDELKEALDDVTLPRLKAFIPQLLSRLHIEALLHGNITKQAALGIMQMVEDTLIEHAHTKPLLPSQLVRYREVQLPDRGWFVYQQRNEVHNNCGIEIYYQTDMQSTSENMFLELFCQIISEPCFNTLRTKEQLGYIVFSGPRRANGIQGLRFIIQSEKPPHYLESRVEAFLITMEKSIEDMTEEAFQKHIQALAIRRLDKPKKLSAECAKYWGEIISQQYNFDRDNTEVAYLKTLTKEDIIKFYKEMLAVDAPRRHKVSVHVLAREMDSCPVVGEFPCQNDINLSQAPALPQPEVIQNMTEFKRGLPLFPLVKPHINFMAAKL
The experiment is described as follows: Dose Response: Fluorescence polarization-based cell-based high throughput dose response assay for inhibitors of insulin-degrading enzyme (IDE). [Related pubchem assays: 434962 (Primary screen (IDE inhibitors in singlicate)), 449730 (Counterscreen (Cytotoxicity in triplicate)), 435028 (Confirmation (IDE inhibitors in triplicate)), 434984 (Summary …. In kind it is functional. Background: Polarisation of emitted light reports the rotation of a fluorescent probe.

Experiment [2] has as its target T2, Mannose-6-phosphate isomerase (Homo sapiens, UniProt P34949).
T2 sequence (P34949 whole entry): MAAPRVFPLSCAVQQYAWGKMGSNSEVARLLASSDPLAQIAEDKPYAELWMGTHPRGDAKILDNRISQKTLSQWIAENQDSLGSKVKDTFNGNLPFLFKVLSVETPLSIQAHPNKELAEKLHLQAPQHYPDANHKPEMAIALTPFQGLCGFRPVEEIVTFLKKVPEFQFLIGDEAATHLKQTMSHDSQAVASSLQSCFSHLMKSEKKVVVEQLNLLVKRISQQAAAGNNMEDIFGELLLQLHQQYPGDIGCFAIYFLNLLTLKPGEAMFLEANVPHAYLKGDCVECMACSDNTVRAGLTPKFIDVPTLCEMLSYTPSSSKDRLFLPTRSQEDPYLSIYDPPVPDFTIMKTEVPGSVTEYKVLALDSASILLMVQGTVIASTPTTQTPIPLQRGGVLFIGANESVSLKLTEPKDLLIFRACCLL
The experiment is described as follows: phosphomannose isomerase inhibition – biochemical, fluorescence intensity, confirmation (AID 1535).

Experiment [3] addresses DNA dC->dU-editing enzyme APOBEC-3A (Homo sapiens, UniProt P31941). The experiment is described as follows: A3A deaminase inhibition for selectivity – biochemical, dose response (AID 504722). Format: functional.
The next experiment deals with T3, Phosphomannomutase 2 (Homo sapiens, UniProt O15305).
T3 sequence (O15305 whole entry): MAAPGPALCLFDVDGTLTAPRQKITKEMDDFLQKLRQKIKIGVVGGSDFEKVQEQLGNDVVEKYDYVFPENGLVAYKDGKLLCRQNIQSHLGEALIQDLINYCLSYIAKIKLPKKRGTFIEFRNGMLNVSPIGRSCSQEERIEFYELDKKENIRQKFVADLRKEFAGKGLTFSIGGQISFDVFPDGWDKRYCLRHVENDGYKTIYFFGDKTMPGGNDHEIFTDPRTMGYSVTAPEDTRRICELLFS
The experiment is described as follows: Counter screen SAR assay for PMM2 inhibitors via a fluorescence intensity assay. [Related pubchem assays (depositor defined):AID1545, AID1574].

The target in experiment [4] is Phosphoethanolamine/phosphocholine phosphatase (Homo sapiens, UniProt Q8TCT1). The experiment is described as follows: SAR assay for compounds that inhibit PHOSPHO1. [Related pubchem assays (depositor defined):AID1545, AID1565, AID1574].
Experiment [5] has as its target DNA dC->dU-editing enzyme APOBEC-3G (Homo sapiens, UniProt Q9HC16). The experiment is described as follows: Dose Response confirmation of small molecule APOBEC3G DNA Deaminase Inhibitors via a fluorescence-based single-stranded DNA deaminase assay. [Related pubchem assays (depositor defined):AID493012, AID493028]. Format: functional.
The target of experiment [6] is T4, Alkaline phosphatase, tissue-nonspecific isozyme (Homo sapiens, UniProt P05186).
T4 sequence (P05186 whole entry): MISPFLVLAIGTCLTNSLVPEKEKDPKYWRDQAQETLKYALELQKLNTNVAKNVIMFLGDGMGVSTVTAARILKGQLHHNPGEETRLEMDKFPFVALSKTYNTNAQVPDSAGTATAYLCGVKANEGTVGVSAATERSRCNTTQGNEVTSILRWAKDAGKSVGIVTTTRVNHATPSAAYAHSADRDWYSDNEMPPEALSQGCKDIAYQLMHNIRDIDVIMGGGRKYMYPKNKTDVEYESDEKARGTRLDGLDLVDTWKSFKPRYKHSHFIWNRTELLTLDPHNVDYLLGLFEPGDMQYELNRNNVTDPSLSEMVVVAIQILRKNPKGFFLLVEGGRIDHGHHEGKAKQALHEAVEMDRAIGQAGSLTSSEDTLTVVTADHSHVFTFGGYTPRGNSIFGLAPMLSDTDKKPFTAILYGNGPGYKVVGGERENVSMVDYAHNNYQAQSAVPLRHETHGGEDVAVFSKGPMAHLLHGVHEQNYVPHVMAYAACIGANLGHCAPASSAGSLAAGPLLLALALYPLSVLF
Nature of the experiment: potency against alkaline phosphatase TNAP – biochemical, luminescent, dose response, SAR follow-up (AID 1056).

Experiment [7] has as its target T5, Rac GTPase-activating protein 1 (Homo sapiens, UniProt Q9H0H5).
T5 sequence (Q9H0H5 whole entry): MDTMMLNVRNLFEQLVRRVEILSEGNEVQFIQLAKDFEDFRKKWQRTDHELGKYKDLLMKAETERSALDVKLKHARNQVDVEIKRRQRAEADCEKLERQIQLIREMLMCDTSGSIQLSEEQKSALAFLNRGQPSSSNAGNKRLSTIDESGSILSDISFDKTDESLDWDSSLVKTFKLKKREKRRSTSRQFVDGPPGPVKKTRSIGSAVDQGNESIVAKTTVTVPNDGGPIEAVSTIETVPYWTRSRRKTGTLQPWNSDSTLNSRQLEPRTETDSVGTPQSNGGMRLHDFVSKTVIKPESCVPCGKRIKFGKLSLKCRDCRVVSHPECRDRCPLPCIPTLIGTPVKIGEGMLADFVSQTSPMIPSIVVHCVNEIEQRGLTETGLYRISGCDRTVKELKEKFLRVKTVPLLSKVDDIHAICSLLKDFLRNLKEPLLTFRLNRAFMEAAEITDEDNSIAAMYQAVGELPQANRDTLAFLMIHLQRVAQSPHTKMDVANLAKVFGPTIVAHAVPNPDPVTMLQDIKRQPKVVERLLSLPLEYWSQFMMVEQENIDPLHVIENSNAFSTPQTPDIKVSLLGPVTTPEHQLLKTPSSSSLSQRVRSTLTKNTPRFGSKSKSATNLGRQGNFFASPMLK
Nature of the experiment: blockers of MgcRacGAP-driven Rac1 GTP hydrolysis – biochemical, ADP Hunter fluorescence, primary and confirmatory, confirmation (AID 624330). Format: functional.

Active and inactive are the calls of the source.

Chain of Phosphoethanolamine/phosphocholine phosphatase (Q8TCT1 whole entry): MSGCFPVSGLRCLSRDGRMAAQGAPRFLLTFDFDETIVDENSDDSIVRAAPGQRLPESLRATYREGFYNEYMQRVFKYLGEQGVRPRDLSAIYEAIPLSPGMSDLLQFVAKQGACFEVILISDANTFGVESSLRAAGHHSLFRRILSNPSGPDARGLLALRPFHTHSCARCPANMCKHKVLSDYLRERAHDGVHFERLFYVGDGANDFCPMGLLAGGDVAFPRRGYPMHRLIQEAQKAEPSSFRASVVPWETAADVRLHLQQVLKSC
Chain of DNA dC->dU-editing enzyme APOBEC-3A (P31941 whole entry): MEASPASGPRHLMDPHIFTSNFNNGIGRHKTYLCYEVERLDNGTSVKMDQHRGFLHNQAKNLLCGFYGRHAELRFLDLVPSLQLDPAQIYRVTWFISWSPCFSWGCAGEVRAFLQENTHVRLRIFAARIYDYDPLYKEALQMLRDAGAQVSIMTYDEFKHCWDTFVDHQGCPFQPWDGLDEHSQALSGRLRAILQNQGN
Chain of DNA dC->dU-editing enzyme APOBEC-3G (Q9HC16 whole entry): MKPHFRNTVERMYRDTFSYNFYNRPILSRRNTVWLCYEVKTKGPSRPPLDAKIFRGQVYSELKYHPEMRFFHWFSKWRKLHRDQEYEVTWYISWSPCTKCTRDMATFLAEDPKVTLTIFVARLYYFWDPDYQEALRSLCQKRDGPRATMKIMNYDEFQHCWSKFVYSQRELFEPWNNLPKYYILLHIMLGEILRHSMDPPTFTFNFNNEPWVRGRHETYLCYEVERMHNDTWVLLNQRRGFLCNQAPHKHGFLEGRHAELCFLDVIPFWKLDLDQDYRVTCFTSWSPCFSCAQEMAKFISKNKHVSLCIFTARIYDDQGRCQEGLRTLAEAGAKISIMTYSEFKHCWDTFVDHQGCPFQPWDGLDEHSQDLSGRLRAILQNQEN

With `O=C(O)c1cccc(-n2sc3ccccc3c2=O)c1`, the IC50 is 36.7 µM (not active) in experiment [1]; 2.38 µM (active) on Insulin-degrading enzyme; 3.29 µM (active) in [2]; > 100 µM (inactive) in [3]; 52.5 µM (active) at Phosphomannomutase 2; 1.14 µM (inactive) in experiment [4]. Besides, the IC50 in experiment [5] was 4.85 µM (active); in experiment [6], > 100 µM (inactive); in experiment [7] it was 30.1 µM (active).

As usually defined, the IC50 is the concentration that inhibits the measured activity by half.
